# Reference: patent publication US10987317B2, “Inhibition of glutaminase C” (Cornell University, priority 2009, dated 2021)
# Columns and labels:
# [1] = molecular target: T1, E. coli-expressed mouse ortholog of human GAC (Mus musculus, UniProt D3Z7P3); test: Recombinant glutaminase activity assay; type: biochemical
# T1 construct: A plasmid encoding mouse GAC (residues 128-603) was cloned into the pET28a vector; His-tag (N, cleaved yes); made in house; host or cells: E. coli (pET28a)
# T1 sequence (D3Z7P3 128-603 isoform D3Z7P3-2): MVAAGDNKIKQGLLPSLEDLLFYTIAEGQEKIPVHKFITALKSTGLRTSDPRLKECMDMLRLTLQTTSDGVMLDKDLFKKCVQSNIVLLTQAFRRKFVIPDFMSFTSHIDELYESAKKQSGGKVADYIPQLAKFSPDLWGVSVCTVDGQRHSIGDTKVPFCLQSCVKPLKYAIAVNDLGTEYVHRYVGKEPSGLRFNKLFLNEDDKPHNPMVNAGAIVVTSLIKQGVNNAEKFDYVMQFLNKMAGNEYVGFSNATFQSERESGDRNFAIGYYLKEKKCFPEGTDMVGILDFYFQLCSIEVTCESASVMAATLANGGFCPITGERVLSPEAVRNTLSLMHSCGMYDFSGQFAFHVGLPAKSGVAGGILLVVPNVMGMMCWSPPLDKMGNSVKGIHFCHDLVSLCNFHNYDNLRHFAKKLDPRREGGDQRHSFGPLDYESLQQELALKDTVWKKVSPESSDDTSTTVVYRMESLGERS
# Experimental: (§1) 100%=620 moles of glutamine hydrolyzed per minute per mole of enzyme. Data represent the average of 3 experiments (±s.d.). […] Following precipitation of the beads and re-suspension, the samples are analyzed by Western blotting with anti-V5 antibody. […] Data represent the average of 3 experiments (±s.d.). […] Data represent the average of 3 experiments (±s.d.). […] Data represent the average of 3 experiments (±s.d.). FIG. 3E NIH 3T3 cells transiently expressing Dbl are assayed for focus formation in the presence of 10 μM 968 alone or together with […] dimethyl α-ketoglutarate. […] 100%=680 nM glutamine hydrolyzed per minute per 10^5 cells. Data are the average of 3 experiments (=s.d.). […] 100%=750 nM glutamine hydrolyzed per minute per 10^5 cells. Data represent the average of 3 experiments (±s.d.).
# The activity of the E. coli-expressed recombinant mouse ortholog of human GAC are assayed in the presence of 0 (●), 10 (∇) or 20 (▪) μM 968 and inorganic phosphate in the form of dipotassium hydrogen phosphate. […] The data are plotted as GA activity as function of varying concentrations of glutamine or inorganic phosphate. The data are the average of 3 experiments and are plotted as mean±SEM.
# Glutaminase activity assays were performed on recombinant enzyme as previously described (Kenny et al., “Bacterial Expression, Purification and Characterization of Rat Kidney-Type Mitochondrial Glutaminasc,” Protein Expr. Purif 31:140-148 (2003), which is hereby incorporated by reference in its entirety). A plasmid encoding mouse GAC (residues 128-603) was cloned into the pET28a vector and the protein was expressed with an N-terminal histidine (His)-tag. The tag was cleaved using thrombin and the protein was further purified by anion-exchange and gel-filtration chromatography. […] The reaction mixture was incubated at room temperature for 45 minutes and the absorbance at 340 nm was recorded for each sample against a water blank. The absorbance of the sample with just the cocktail mixture was subtracted from each reading to calculate the activity of the enzyme.
# [2] = test system: GA activity in MDA-MB231 cells; test: GA activity in mitochondrial fractions; type: cell-based, human; settings: 10 μM, phosphate-independent
# Experimental: as §1
# FIGS. 11A-E illustrate the effects of different treatments on GA activity. […] The addition of Pi stimulated the GA activity in control 3T3 cells, Dbl-expressing cells, and Cdc42(F28L)-expressing cells by ˜6-fold, 2-fold, and 3-fold, respectively. 100% represents the Pi-stimulated activity measured for Dbl-transformed cells that are not treated with 968. […] The data are plotted as the percentage of GA activity measured for untreated SKBR3 cells and represent the average of 2 experiments. […] 100% represents the P1-stimulated activity measured for untreateDbl-transformed cells. […]
compound,measurement,setting,value
"CN(C)c1ccc(C2Nc3ccc4ccccc4c3C3=C2C(=O)CC(C)(C)C3)cc1Br (stereo not drawn) [Compound 968, 5-[3-bromo-4-(dimethylamino)phenyl]-2,2-dimethyl-2,3,5,6-tetrahydrobenzo[a]]",inhibition of enzymatic activity of purified GAC,[1],inhibits
same,mode of inhibition versus glutamine and inorganic phosphate,"[1]; 0, 10 or 20 μM",neither competitive versus substrate (glutamine) nor inorganic phosphate
same,basal GA activity,[2],sensitive
